Data taken from patent publication US10800815B2, “Kv1.3 potassium channel antagonists” (cgtx-Peptide Development GmbH, priority 2014, dated 2020).
Entries after “also recorded” stand apart in the source; their conditions may differ. Where two headings read alike, the source gives them in different places.

Experiments:
Kv1.1 = target: T1, Kv1.1 (Homo sapiens, UniProt Q09470); assay: Patch-clamp measurement of Kv1.1 channel inhibition (Example 1); assay type: cell-based; parameters: dose or concentration left out as unconfirmed
T1 construct: expressed in transfected cells; host or cells: Sf21 insect cells, baculovirus infection
T1 sequence (Q09470 whole entry): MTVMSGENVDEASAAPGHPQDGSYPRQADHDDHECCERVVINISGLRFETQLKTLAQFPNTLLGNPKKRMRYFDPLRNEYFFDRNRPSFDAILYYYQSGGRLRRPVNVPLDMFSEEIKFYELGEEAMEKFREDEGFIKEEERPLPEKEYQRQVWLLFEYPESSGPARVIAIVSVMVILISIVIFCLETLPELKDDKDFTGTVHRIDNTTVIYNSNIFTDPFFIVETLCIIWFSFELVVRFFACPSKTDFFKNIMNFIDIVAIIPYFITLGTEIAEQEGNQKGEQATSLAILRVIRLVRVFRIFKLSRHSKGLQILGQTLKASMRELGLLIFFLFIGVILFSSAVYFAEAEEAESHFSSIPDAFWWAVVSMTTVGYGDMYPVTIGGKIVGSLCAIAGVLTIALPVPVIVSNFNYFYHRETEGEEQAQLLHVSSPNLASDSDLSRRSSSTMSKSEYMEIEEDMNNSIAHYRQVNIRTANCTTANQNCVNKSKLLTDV
Experimental: FIGS. 1A-1F Measurement of Kv1.3 (FIGS. 1B and 1E), Kv1.5 (FIGS. 1C and 1F) and Kv1.1 (FIGS. 1A and 1D) channel inhibition by patch-clamp.
Peptides were dissolved at 1 μg/μl in 20 mM NaPO4 buffer pH 8.2 (1 mg in 1 ml folding buffer) and dialysed against the same buffer 3×1 L, Float-a-Lyzer cut off 500 Da (Spectrapor) at room temperature.
HsTx 1 binding was tested at various concentrations of e.g. 100 pM, 1 nM, 10 nM, 50 nM, 100 nM, 500 nM, and 1 μM—depending on the tested channel. Representative measurements for Kv 1.1, Kv1.3 and Kv1.5 are depicted in FIGS. 1 a), 1 b), and 1 c) respectively.
Cgtx-544 binding was tested at various concentrations of e.g. 1 nM, 10 nM, 50 nM, 100 nM, 1 μM, and 5 μM—depending on the tested channel. Representative measurements for Kv1.1, Kv1.3 and Kv1.5 are depicted in FIGS. 1 d), 1e), and 1) f, respectively.

Kv1.3 = Kv1.3 (Homo sapiens, UniProt P22001); assay: Kv1.3 block with prolonged incubation times; assay type: cell-based
Chain of Kv1.3 (P22001 whole entry): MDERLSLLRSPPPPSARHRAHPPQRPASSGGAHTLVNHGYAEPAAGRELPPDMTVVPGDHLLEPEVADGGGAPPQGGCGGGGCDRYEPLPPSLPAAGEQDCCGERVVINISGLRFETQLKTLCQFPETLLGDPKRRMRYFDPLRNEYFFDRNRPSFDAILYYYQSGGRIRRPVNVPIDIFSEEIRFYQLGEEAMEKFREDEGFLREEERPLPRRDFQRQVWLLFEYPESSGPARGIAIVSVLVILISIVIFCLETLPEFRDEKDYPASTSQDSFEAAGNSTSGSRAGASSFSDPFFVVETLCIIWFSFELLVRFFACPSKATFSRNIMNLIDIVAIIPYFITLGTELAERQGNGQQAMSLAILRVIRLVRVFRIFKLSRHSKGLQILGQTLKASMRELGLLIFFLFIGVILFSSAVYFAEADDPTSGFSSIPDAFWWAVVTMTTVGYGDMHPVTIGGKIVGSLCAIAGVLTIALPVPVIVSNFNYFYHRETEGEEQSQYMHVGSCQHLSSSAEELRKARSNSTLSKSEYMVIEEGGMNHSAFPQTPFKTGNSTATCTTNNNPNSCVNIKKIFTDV

[1] = system: antigen induced arthritis (AIA); assay: Antigen induced arthritis (AIA) rat model, knee joint swelling; assay type: in vivo; conditions: for effect on knee swelling, curative treatment: 1 mg/kg BW i.v. daily, start on day 0 or day 1, vs vehicle
[2] = system: white blood cells in peripheral blood; assay: Haematology (WBC, neutrophil granulocytes, lymphocytes) in AIA rats; assay type: in vivo, rat
Experimental: For the blood withdrawal the animals were narcotized briefly, the tail was disinfected and the tail vein was punctured with a cannula, 50 μl of blood were withdrawn with a heparin coated pipette and mixed with 5 μl of a stabilising agent (CPD) and 1 μl heparin (1.5 U/μl diluted 1:4 in 0.9% NaCl).
White Blood Cells (WBC) were counted with a Coulter Counter in the automatic mode.
Blood samples were taken regularly for monitoring of hematological parameters. Haematological parameters were assessed in all animals weekly before induction, at day of induction and 10 days after induction (days −21, −14, −7, 0 and 10). […] Absolute counts of white blood cells (WBC), neutrophil granulocytes and lymphocytes were analyzed among others, the last two also stated in percentage of total WBC. EDTA whole blood of seven individuals from both vehicle and cgtx-544 peptide therapy group was measured with Sysmex XT-2000i.
For screening the state of health of all individuals, complete haemograms were used again. EDTA whole blood of seven individuals from both MTX high-dose and low-dose therapy groups were measured with Sysmex XT-2000i.V weekly before induction, at day of induction and 4 and 7 days after induction (day −21, −14, −7, 0, 4 and 7; MTX low-dose therapy group additionally on day −3, when i.v. application started).

[3] = target: T2, Kv1.3 channels expressed in Sf21 insect cells (Homo sapiens, UniProt P22001); assay: Stability ex vivo in rat blood plasma, read out as IC50 on Kv1.3 (Example 3); assay type: in vitro ADME
T2 construct: expressed in transfected cells; host or cells: Sf21 insect cells, baculovirus infection
T2 sequence (P22001 whole entry): as above
Experimental: The aim was to test the stability of the cgtx-544 peptide in blood plasma of mammals after different incubation times at room temperature (RT) and 37° C. Stability was defined as IC50 value of cgtx-544 after different incubation times at RT and 37° C. Blood plasma was prepared from fresh blood samples from healthy rats or humans. Heparin was added to fresh blood samples to prevent clogging. Plasma preparation was performed by centrifugation for 2 min at 2000×g at RT.
As the cgtx-544 peptide used in these experiments was incompletely folded, a higher IC50 than normal was determined.
To investigate the stability and activity in plasma the peptide was added to freshly prepared human and rat blood plasma at a final concentration of 2 μM. The samples were split into two aliquots and incubated at 37° C. and at room temperature (RT, 20° C.). For the electrophysiological analysis serial dilutions of the samples were prepared.

antibody formation = assay type: in vivo, rat
Experimental: FIG. 27 Analysis of mBSA specific antibodies. In the experimental groups H and I all animals have produced antibodies against the antigen mBSA during the immunization and AIA induction period.
The remaining swelling in treated animals was assumed to be due to antibody/antigen reactions. Therefore, immunized as well as naïve animals were tested for the presence of mBSA specific antibodies. Antibodies against mBSA could be detected in all immunized animals of groups H and I seven days after arthritis induction (FIG. 27).

in vivo = assay type: in vivo; conditions: rat, i.v., 750 μg/kg BW; listed as cgtx-544
Experimental: FIG. 34 Decrease of cgtx-544(Sing) in the serum of treated rats after i.v. injection. The concentration of unbound circulating cgtx-544(Sing) was calculated on the basis of a standard curve. Standard error of the mean is depicted in the error bars (n=6).
Rats received i.v. injections of cgtx-544(Sing) (750 μg/kg BW). Blood was withdrawn at time points 0, 1, 10 and 60 minutes. Subsequently, serum was prepared from blood samples. The cgtx-544 content in these samples was analyzed electrophysiologically by measuring the blocking effect on Kv1.3 channels expressed in CHO cells. […] In order to study the amount of unbound cgtx-544(Sing) in the rat, the amount of cgtx-544(Sing) present in the circulating blood at the time points referred above was calculated through a calibration curve. This calibration curve was obtained by adding known quantities of cgtx-544(Sing) to blood serum and subsequent electrophysiological measurements on Kv1.3 channels. The block of Kv1.3 currents by these spiked samples was similar to that obtained with cgtx-544(Sing) in the absence of serum (data not shown).

[4] = Biochemical properties: isoelectric point; assay type: physicochemical

## CC[C@H](C)[C@H](NC(=O)[C@@H](N)[C@@H](C)O)C(=O)N[C@H](C(=O)N[C@@H](CC(N)=O)C(=O)N[C@H](C(=O)N[C@@H](CCCCN)C(=O)N[C@H]1CSSC[C@@H]2NC(=O)[C@H](CCCCN)NC(=O)CNC(=O)[C@H](Cc3ccc(O)cc3)NC(=O)[C@@H]3CCCN3C(=O)[C@@H]3CSSC[C@@H](C(=O)O)NC(=O)[C@H](CCCNC(=N)N)NC(=O)[C@H](CC(N)=O)NC(=O)[C@@H]4CSSC[C@H](NC(=O)[C@@H]5CCCN5C(=O)[C@@H]5CCCN5C(=O)[C@H](CC(C)C)NC(=O)[C@H](CSSC[C@H](NC(=O)[C@H](CCCCN)NC(=O)[C@H](CCCNC(=N)N)NC(=O)[C@H](CC(N)=O)NC(=O)[C@H](CCSC)NC2=O)C(=O)N[C@@H](CCCCN)C(=O)N4)NC(=O)[C@H](CCC(N)=O)NC(=O)[C@H](CCCCN)NC(=O)[C@@H]2CCCN2C(=O)[C@H](CO)NC(=O)[C@H]([C@@H](C)O)NC1=O)C(=O)N[C@@H](CCCCN)C(=O)N[C@@H](C)C(=O)N[C@@H](CCC(N)=O)C(=O)N[C@@H]([C@@H](C)O)C(=O)NCC(=O)N3)C(C)C)[C@@H](C)CC [Compound 7]
Kv1.1
  block of Kv1.1: about 22%
Kv1.3; long incubation times, i.e. 15 min
  block of Kv1.3 currents: 60%
Kv1.3; short incubation times
  block of Kv1.3 currents: 20%
[1]; 1 mg/kg 1× daily i.v. from day −3
  relative difference of knee swelling (normalized): 0.18±0.05
[1]; 1 mg/kg 1× daily i.v., 24 h after arthritis induction
  reduction of knee swelling relative to the vehicle control group: 60%
[1]; 1 mg/kg BW i.v. 1×d1 and 1×d4, listed as cgtx-544
  effect on knee swelling after second single injection: reduced again to a significant value; also recorded: statistically significant reduction in knee swelling
[1]; listed as cgtx-544
  effect on knee swelling, curative treatment: statistically significant reduction in knee swelling
[1]; listed as cgtx-544(Mix)
  effect on knee swelling, curative treatment: clear reducing, and statistically significant effect; also recorded: significant reduction in knee joint swelling
[1]; 1 mg/kg BW i.v. from day −3
  knee joint swelling versus untreated (excipient) controls: clear reduction of the knee joint swelling
[1]; 1 mg/kg i.v. daily, start day 0 or day 1
  knee diameters after seven days of treatment, curative: nearly comparable to the non-induced, intra-individual control knee
[1]; 1 mg/kg i.v. daily, therapy started on day 0 immediately after arthritis induction
  maximal reduction of knee swelling, curative treatment: 40%
[1]; 1 mg/kg i.v. daily, therapy started on day 1
  maximal reduction of knee swelling, curative treatment: 58%
[1]; 0.1, 1 and 5 mg/kg BW i.v. daily, day −3 to day 6, vs vehicle, listed as cgtx-544
  effect on knee swelling, preventive treatment: clear reducing, dose dependent and statistically significant effect; also recorded: statistically significant reduction in knee swelling
[1]; daily i.v. from day −3
  knee diameters after seven days of treatment, preventive: nearly comparable to the non-induced, intra-individual control knee
  maximal reduction of knee swelling, preventive treatment: 70%
[1]; single i.v. injection 1 mg/kg BW on day 1 (1×d1), 24 h after application, listed as cgtx-544, 1 mg/kg
  effect on knee swelling after single injection: clear and statistically significant reduction of knee swelling; also recorded: statistically significant reduction in knee swelling; also recorded: strong and sustained effect
[2]; 1 mg/kg 1× daily i.v.
  generalized immunosuppression: did not show a generalized immunosuppression
[2]; curative treatment, 1 mg/kg daily i.v.
  WBC, neutrophil granulocytes and lymphocytes, absolute and relative cell counts: comparable to vehicle treated individuals
[2]; preventive treatment, daily i.v. from day −3
  WBC, neutrophil granulocytes and lymphocytes, absolute and relative cell counts: comparable to vehicle treated individuals
[3]; 24 h, 37° C. and RT
  significant change in activity: could not be detected
[3]; 48 h at RT
  activity after incubation in plasma: remained unchanged
[3]; 14 days at 37° C.
  activity after incubation in plasma: no activity was detected
[3]; 14 days at RT
  activity after incubation in plasma: unchanged activity
[3]; read-out: IC50 on Kv1.3 after incubation in plasma, 48 h at 37° C.
  IC50: 57.8 nM
[3]; read-out: IC50 on Kv1.3 in plasma, time point 0 h
  IC50: 15 nM
Antibody formation; after 10 days under peptide therapy
  reactivity of immunized animals on cgtx-544(Mix) (anti-peptide antibodies): no reactivity
Antibody formation; seven days after arthritis induction
  suppression of B-lymphocytes and antibody formation (mBSA specific antibodies): does not seem to suppress B-lymphocytes and antibody formation
In vivo
  in vivo half-life: approximately 26 min
[4]
  Isoelectric point: 9.29
